Drawing on the SangsterLogP compilation, this text covers logP for 26 molecules.

Structures are written as SMILES.

The nature of the data set: method code SF-AS, from DOI: 10.1002/zfch.19810210618.
In the case of `NNC(=O)Nc1ccc(C(=O)O)cc1`, the logP was -0.21.

In turn, `NNC(=O)Nc1ccccc1[N+](=O)[O-]` gave a lipophilicity (logP) of -0.47.

`NNC(=O)Nc1cc(Cl)ccc1Cl` displayed a logP of 1.07. On to `NNC(=O)Nc1cccc(C(=O)O)c1`, for which the logP is -0.16. Molecule `NNC(=O)Nc1ccc(I)cc1` returned a logP of 1.24. With `Cc1ccccc1NC(=O)NN`, the log partition coefficient (logP) worked out at 0.36. Molecule `NNC(=O)Nc1cccc([N+](=O)[O-])c1` showed a logP of -0.13.

For the molecule `CCOc1ccc(NC(=O)NN)cc1`, the logP was found to be 0.53. The figure for `NNC(=O)Nc1ccc(Cl)cc1` is 0.87. Regarding `Cc1cccc(NC(=O)NN)c1`, the logP worked out at 0.68. The logP values of the last two molecules are within 0.2 log units of each other. `NNC(=O)Nc1cccc(O)c1` yielded a logP of -0.5.

`NNC(=O)Nc1ccccc1O`: the logP worked out at 0.33. `NNC(=O)Nc1ccccc1` had a logP of 0.16. The molecule `NNC(=O)Nc1cccc(Br)c1` had a lipophilicity (logP) of 0.96.

In turn, `NNC(=O)Nc1cccc2ccccc12` yielded a logP of 0.9. Turning to `NNC(=O)Nc1ccc([N+](=O)[O-])cc1`, the logP was -0.18. For `Cc1ccc(NC(=O)NN)cc1`, the lipophilicity (logP) was 0.69.

`COc1cccc(NC(=O)NN)c1` gave a logP of 0.17. The figure for `NNC(=O)Nc1ccc(Br)cc1` is 1. As for `NNC(=O)Nc1ccccc1Br`, the lipophilicity (logP) is 0.66. For `NNC(=O)Nc1ccccc1C(=O)O`, the logP was -0.49. Take `COc1ccccc1NC(=O)NN`: the logP was -0.15.

`COc1ccc(NC(=O)NN)cc1` had a logP of 0.17. Turning to `NNC(=O)Nc1ccc(O)cc1`, the logP was -0.55.

On to `NNC(=O)Nc1ccccc1Cl`, for which the logP stood at 0.45. For `NNC(=O)Nc1cccc(Cl)c1`, the logP is 0.83.

For orientation: logP means a log measure of how a compound divides between an organic and an aqueous phase. Lower therefore signals lower lipophilicity.
